# Experimental data from paper PMC11858854, “In Vitro and In Vivo Assessment of Pharmacokinetic Profile of Peramivir in the Context of Inhalation Therapy” (Pharmaceuticals, 2025).
# Legend:
# NCI-H441 cell model = test: Bidirectional transport, NCI-H441 air-liquid culture model; assay type: in vitro ADME, human; details: NCI-H441, 2 μM
# Description: NCI-H441 cells were cultured in RPMI-1640 medium (Gibco, Thermo, CA, USA) supplemented with 10% FBS and PS (100 U/mL) at 37 °C in a humidified 5% CO2 incubator, and the medium was changed every other day. […] Then, 850 μL of complete medium (containing 200 nM dexamethasone) was added to the basolateral chamber. […] Subsequently, an air-interfaced culture (AIC) was initiated by supplying 650 μL of culture medium to the basolateral chamber only. The culture medium was replaced every other day.
# We removed the liquid from the apical and basolateral of the Transwell, rinsed the cells three times with a buffer containing HBSS, 10 mM Hepes, and 0.1% BSA (Buffer A), and then added Buffer A (100 µL for the apical side and 600 µL for the basolateral side) for pre-incubation for 30 min at 37 °C. For the transport studies in the apical to basolateral (A-B) direction, 100 μL of pre-warmed test solution (Buffer A containing 2 µM positive control drugs or peramivir) was added to the apical side, while 600 μL of pre-warmed assay buffer, a buffer containing HBSS, 10 mM Hepes, and 1% BSA (Buffer B), was added to the basolateral compartment.
# A549 cells = test: Uptake study by A549 cells; assay type: in vitro ADME, human; details: 10 µM, 37 °C or 4 °C
# Description: A549 cells were cultured in DMEM medium supplemented with 10% FBS and PS (100 U/mL) at 37 °C in a humidified 5% CO2 incubator. Cells were seeded on 24-well plates at a density of 3 × 10^4 cells/well. For the uptake assay, the DMEM media were removed, and the cells were washed with pre-warmed Hank’s buffer three times (1 mL/well). The third washing buffer was retained in the wells, and the plate was placed in an incubator at 37 °C or 4 °C for 30 min prior to the initiation of the uptake experiment. Following the removal of the washing buffer, 200 μL of pre-warmed test drug solution (Hank’s buffer containing the 10 µM peramivir) was added into each well, and the plates were incubated at 37 °C or 4 °C for 2, 5, and 15 min. Then the incubation solution was removed, and the cells were washed with ice-cold transportation buffer three times (1 mL/well). A total of 0.2 mL pure water was added to each well to lyse the cells by repeated freezing and thawing (−196 °C~37 °C, three times). The cell lysate was collected and stored at −40 °C for LC-MS/MS analysis and protein measurement.
# human OCT2 = biological target: T1, human OCT2 (Homo sapiens, UniProt O15244); test: Uptake study, HEK293 cells overexpressing OCT2; assay type: in vitro ADME
# T1 construct: host or cells: HEK293 (HEK293-OCT2); control HEK293-MOCK
# T1 sequence (O15244 1-555): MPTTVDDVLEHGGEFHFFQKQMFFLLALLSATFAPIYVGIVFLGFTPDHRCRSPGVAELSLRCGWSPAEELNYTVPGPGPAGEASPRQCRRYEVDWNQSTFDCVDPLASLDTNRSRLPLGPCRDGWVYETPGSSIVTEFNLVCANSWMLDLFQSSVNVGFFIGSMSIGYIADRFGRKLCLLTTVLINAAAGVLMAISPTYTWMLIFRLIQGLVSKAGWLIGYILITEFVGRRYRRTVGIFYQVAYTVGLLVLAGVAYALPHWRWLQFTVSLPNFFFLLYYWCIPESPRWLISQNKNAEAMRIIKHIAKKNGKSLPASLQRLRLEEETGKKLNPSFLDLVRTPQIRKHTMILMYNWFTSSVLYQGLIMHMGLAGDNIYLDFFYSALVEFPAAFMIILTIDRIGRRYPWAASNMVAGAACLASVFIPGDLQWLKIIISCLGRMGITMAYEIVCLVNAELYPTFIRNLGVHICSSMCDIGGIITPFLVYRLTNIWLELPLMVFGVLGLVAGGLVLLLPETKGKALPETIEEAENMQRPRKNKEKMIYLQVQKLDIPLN
# Description: (§1) All cells (HEK293-MOCK, HEK293-OCT1, HEK293-OCT2, MDCK-MOCK, MDCK-OCTN1, and MDCK-OCTN2) were cultured in DMEM medium supplemented with 10% FBS and PS (100 U/mL), at 37 °C in a humidified 5% CO2 incubator. Cells were seeded on 24-well plates at a density of 1 × 10^4 cells/well. For the uptake assay, the DMEM media were removed, and the cells were washed with pre-warmed Hank’s buffer three times (1 mL/well). Subsequent addition of inhibitor-free/inhibitor-containing buffer was pre-incubated for 30 min at 37 °C prior to the initiation of the uptake experiment. After the pre-incubating buffer was removed, 200 μL of pre-warmed test drugs solution (Hank’s buffer containing 10 µM and 50 µM peramivir) or a mixture of test drugs and inhibitor was added into each well, and the plates were incubated at 37 °C for 5 min. At the end of incubation, cells were washed and lysed as described above. The cell lysate was collected and stored at −40 °C for LC-MS/MS analysis and protein measurement. The negative control (MOCK cells) and positive control were included simultaneously.
# human OCTN2 = biological target: T2, human OCTN2 (Homo sapiens, UniProt O76082); test: Uptake study, MDCK cells overexpressing OCTN2; assay type: in vitro ADME
# T2 construct: Huidi Jiang, Zhejiang University; host or cells: MDCK (MDCK-OCTN2); control MDCK-MOCK
# T2 sequence (O76082 1-557): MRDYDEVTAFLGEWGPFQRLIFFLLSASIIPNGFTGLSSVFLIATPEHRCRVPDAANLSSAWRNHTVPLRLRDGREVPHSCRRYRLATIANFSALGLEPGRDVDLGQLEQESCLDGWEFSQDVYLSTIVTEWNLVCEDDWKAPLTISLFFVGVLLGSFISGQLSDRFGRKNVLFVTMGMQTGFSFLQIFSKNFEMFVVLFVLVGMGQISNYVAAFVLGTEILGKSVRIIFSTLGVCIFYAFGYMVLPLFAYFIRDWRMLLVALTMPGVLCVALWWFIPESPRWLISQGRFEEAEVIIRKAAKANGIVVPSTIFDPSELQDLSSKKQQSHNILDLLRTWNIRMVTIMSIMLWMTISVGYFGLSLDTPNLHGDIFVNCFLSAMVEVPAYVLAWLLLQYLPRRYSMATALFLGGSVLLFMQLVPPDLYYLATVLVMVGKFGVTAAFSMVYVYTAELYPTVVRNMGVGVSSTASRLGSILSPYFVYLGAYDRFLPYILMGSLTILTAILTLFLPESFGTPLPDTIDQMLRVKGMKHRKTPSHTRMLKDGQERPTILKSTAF
# Description: as §1
# [1] = oral; cited from earlier work
# Caco-2 cell model = tested on: Caco-2 cell model; parameters: method as in PMID 28000173; details: Caco-2, 10 μM; cited from earlier work
compound,measurement,setting,value
CCC(CC)[C@H](NC(C)=O)[C@@H]1[C@H](O)[C@@H](C(=O)O)C[C@H]1N=C(N)N [Peramivir],ER,NCI-H441 cell model,1.11
same,Papp A-B,"NCI-H441 cell model; Mean ± SD, n = 3",1.15 ± 0.16 ×10−6 cm/s
same,Papp B-A,"NCI-H441 cell model; Mean ± SD, n = 3",1.28 ± 0.36 ×10−6 cm/s
same,uptake rate in A549 cell model,A549 cells,low
same,OCT2 substrate status,human OCT2; HEK293-OCT2,does not act as a substrate
same,transporter-mediated uptake ratio (UR),"human OCT2; HEK293-OCT2, 50 μM",< 1
same,inhibition ratio (IR),"human OCT2; HEK293-OCT2, 50 μM, inhibitor verapamil (200 μM)",exceeding 98.51%
same,OCTN2 substrate status,human OCTN2; MDCK-OCTN2,confirming peramivir as a substrate for the OCTN2 transporter
same,transporter-mediated uptake ratio (UR value),"human OCTN2; MDCK-OCTN2, 50 μM",41.62
same,inhibition ratio (IR value),"human OCTN2; MDCK-OCTN2, 50 μM, inhibitor L-carnitine (200 μM)",65.69%
same,oral bioavailability,[1],3%
same,Papp,Caco-2 cell model,3.29 ± 0.739 × 10^−7 cm·s^−1
